Results taken from publication PMC9229919, “4-Aminoquinoline-Based Adamantanes as Potential Anticholinesterase Agents in Symptomatic Treatment of Alzheimer’s Disease” (Pharmaceutics, 2022).
Where two headings read alike, the source gives them in different places.

Tests used:
purified human BChE = biological target: T1, purified human BChE (Homo sapiens, UniProt P06276); test: biochemical; assay type: biochemical
T1 construct: possibly also a gift of Dr Florian Nachon (the sentence is ambiguous)
T1 sequence (P06276 29-602): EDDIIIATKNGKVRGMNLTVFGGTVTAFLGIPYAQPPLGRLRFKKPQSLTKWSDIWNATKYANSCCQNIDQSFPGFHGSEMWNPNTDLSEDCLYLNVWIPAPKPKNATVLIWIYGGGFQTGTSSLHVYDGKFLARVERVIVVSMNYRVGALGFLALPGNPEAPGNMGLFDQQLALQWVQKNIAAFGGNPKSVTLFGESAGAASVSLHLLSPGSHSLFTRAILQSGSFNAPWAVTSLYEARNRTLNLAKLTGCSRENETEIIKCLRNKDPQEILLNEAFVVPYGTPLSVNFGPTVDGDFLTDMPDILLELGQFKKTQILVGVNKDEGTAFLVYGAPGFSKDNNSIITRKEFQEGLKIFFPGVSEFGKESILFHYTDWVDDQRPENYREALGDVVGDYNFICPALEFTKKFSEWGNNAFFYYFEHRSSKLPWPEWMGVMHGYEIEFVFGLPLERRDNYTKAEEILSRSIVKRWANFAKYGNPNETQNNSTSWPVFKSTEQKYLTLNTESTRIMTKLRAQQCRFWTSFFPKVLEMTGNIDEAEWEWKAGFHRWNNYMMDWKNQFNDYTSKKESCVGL
Description: (§1) Acetylthiocholine (ATCh) and 5,5′-dithiobis(2-nitrobenzoic acid) (DTNB) were purchased from Sigma-Aldrich, St. Louis, MO, USA. ATCh was dissolved in water and DTNB in 0.1 M sodium phosphate buffer (pH 7.4). The 4-aminoquinilines were dissolved in DMSO and all further dilutions were made in water.
(§2) The sources of AChE and BChE were purified human BChE and recombinant human AChE that was kindly provided by Dr Florian Nachon (Département de Toxicologie, Armed Forces Biomedical Research Institute, Brétigny-sur-Orge, France). […] The enzymes were diluted in sodium phosphate buffer 0.1 M (pH 7.4) containing 0.1% BSA.
(§3) Enzyme activities were measured spectrophotometrically using a slightly modified Ellman method, as described earlier. […] At least three inhibitor concentrations for each substrate concentration were used in at least three experiments. The apparent inhibition constant (Ki,app) was calculated using the Hunter–Downs Equation and linear regression analysis:(1) Ki,app=vi·i/v0−vi=Ki+Ki/KS·s where the y-intercept determines the enzyme-inhibitor dissociation constant (Ki), while the x-intercept determines the enzyme-substrate dissociation constant, KS.
(§4) The Hunter–Downs Equation was used under the assumption that the substrate, due to relatively low concentrations used in experiments, would bind only to the catalytic site of the enzymes, while the inhibitors would bind to both CAS and/or PAs. This allowed the type of inhibition to be determined from Ki,app vs. substrate concentration ([S]) dependency on Hunter–Downs plot.
(§5) The final content of DMSO in the measurements was up to 0.2%. […] The measurements were performed at 25 °C on a Tecan Infinite M200Pro plate reader (Tecan Austria GmbH, Salzburg, Austria).

recombinant human AChE = biological target: T2, recombinant human AChE (Homo sapiens, UniProt P22303); test: biochemical; assay type: biochemical; conditions: for IS: IS = Ki(BChE)/Ki(AChE), IS > 1 selective to AChE
T2 construct: gift of Dr Florian Nachon (Armed Forces Biomedical Research Institute, Brétigny-sur-Orge, France)
T2 sequence (P22303 32-614): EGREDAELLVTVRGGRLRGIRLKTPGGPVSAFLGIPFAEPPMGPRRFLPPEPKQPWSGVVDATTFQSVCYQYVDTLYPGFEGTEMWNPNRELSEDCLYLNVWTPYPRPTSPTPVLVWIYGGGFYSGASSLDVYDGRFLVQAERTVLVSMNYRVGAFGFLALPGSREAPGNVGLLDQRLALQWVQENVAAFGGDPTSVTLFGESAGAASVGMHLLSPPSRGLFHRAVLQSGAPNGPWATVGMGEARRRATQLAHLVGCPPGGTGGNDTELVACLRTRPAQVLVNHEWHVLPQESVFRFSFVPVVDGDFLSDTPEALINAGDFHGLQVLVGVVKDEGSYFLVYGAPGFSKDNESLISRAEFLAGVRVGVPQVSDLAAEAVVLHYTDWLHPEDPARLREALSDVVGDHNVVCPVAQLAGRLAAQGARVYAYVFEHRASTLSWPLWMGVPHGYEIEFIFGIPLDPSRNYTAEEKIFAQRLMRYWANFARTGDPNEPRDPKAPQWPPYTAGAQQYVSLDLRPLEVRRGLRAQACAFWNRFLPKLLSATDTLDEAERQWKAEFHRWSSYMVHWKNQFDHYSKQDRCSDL
Description: as §1, §2, §3, §4, §5

[1] = Ferric reducing antioxidant power (FRAP) assay; conditions: for FRAP: mean ± standard error of three experiments;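 as to FRAP: expressed as µM Fe2+ equivalents from an FeSO4·7H2O standard curve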
Description: . All the chemicals were purchased from Sigma-Aldrich (St. Louis, MO, USA), except for tripyridyltriazine (TPTZ) (Fluka, Buchs, Switzerland) and FeCl3 (Kemika, Zagreb, Croatia). The FRAP assay was assessed according to Benzie and Strain [53] with slight procedure adjustments for 96-well microplates. The method is based on the reduction of the ferric-tripyridyltriazine (Fe^3+-TPTZ) complex to ferrous tripyridyltriazine (Fe^2+-TPTZ) by the action of electron-donating compounds at a low pH. Briefly, the FRAP reagent was prepared by mixing acetate buffer (300 mM, pH 3.6), a solution of 10 mM TPTZ in 40 mM HCl, and 20 mM FeCl3 at 10:1:1 (v/v/v). Then, 240 μL of FRAP reagent and 10 μL of sample solution were added to a 96-well plate and incubated at 37 °C for 60 min. The absorbance was measured at 593 nm using a microplate reader (Infinite M200PRO, Tecan Austria GmbH, Salzburg, Austria) against a blank. The reducing capacity was determined for 10 and 100 µM compound concentrations. […]. All measurements were performed in three independent experiments. FRAP values, denominating the reduction of ferric-tripyridyltriazine (Fe^3+-TPTZ) to ferrous tripyridyltriazine (Fe^2+-TPTZ) by 4-aminoquinolines were calculated based on a standard curve obtained using […].

[2] = Reverse-phase thin-layer chromatographic lipophilicity (RF, RM0); assay type: physicochemical; conditions: for RM0: intercept of RM = RM0 + bC; for b: slope of RM = RM0 + bC; for RF, Methanol/Water/Hydrochloric acid (conc.), mobile phase I: I = 90%MeOH/5%H2O/5%HCl; for RF, Dioxane/Water/Hydrochloric acid (conc.), mobile phase II: II = 80%Dioxane/15%H2O/5%HCl; for RF, Methanol/Water/Hydrochloric acid (conc.), mobile phase II: II = 85%MeOH/10%H2O/5%HCl; for RF, Acetone/Water/Hydrochloric acid (conc.), mobile phase III: III = 70%AC/25%H2O/5%HCl; for RF, Dioxane/Water/Hydrochloric acid (conc.), mobile phase III: III = 70%Dioxane/25%H2O/5%HCl; for RF, Methanol/Water/Hydrochloric acid (conc.), mobile phase III: III = 80%MeOH/15%H2O/5%HCl; for RF, Dioxane/Water/Hydrochloric acid (conc.), mobile phase IV: IV = 60%Dioxane/35%H2O/5%HCl; for RF, Acetone/Water/Hydrochloric acid (conc.), mobile phase IV: IV = 65%AC/30%H2O/5%HCl; for RF, Methanol/Water/Hydrochloric acid (conc.), mobile phase IV: IV = 75%MeOH/20%H2O/5%HCl; for RF, Acetone/Water/Hydrochloric acid (conc.), mobile phase IX: IX = 40%AC/55%H2O/5%HCl; for RF, Methanol/Water/Hydrochloric acid (conc.), mobile phase IX: IX = 50%MeOH/45%H2O/5%HCl; for RF, Dioxane/Water/Hydrochloric acid (conc.), mobile phase V: V = 50%Dioxane/45%H2O/5%HCl; for RF, Acetone/Water/Hydrochloric acid (conc.), mobile phase V: V = 60%AC/35%H2O/5%HCl; for RF, Methanol/Water/Hydrochloric acid (conc.), mobile phase V: V = 70%MeOH/25%H2O/5%HCl; for RF, Dioxane/Water/Hydrochloric acid (conc.), mobile phase VI: VI = 40%Dioxane/55%H2O/5%HCl; for RF, Acetone/Water/Hydrochloric acid (conc.), mobile phase VI: VI = 55%AC/40%H2O/5%HCl; for RF, Methanol/Water/Hydrochloric acid (conc.), mobile phase VI: VI = 65%MeOH/30%H2O/5%HCl; for RF, Acetone/Water/Hydrochloric acid (conc.), mobile phase VII: VII = 50%AC/45%H2O/5%HCl; for RF, Methanol/Water/Hydrochloric acid (conc.), mobile phase VII: VII = 60%MeOH/35%H2O/5%HCl; for RF, Acetone/Water/Hydrochloric acid (conc.), mobile phase VIII: VIII = 45%AC/50%H2O/5%HCl; for RF, Methanol/Water/Hydrochloric acid (conc.), mobile phase VIII: VIII = 55%MeOH/40%H2O/5%HCl
Description: Chromatographic determination of lipophilicity
Merck, Darmstadt, Germany). The mobile phase contained organic modifier (methanol, acetone or dioxane), water and hydrochloric acid.
Methanol was varied in the range […]
with an increment of 10%. […]
before chromatogram development. The solvent developing distance was 4.5 cm. Detection of […]
All experiments were performed at ambient temperature (22±2 °C). Retention parameters were calculated as previously described. […]

[3] = logarithm of Ki in µM, BChE, dependent variable of the QSAR model, read-out: Y Measured 2 log(ki)Bche, log (Ki/µM BChE) (converted)
[4] = ± standard error, 25 °C, ATCh substrate, read-out: Ki BChE
[5] = log (Ki/µM AChE), read-out: Y Measured 1 log(ki)Ache (converted)
[6] = ± standard error, 25 °C, ATCh substrate, read-out: Ki AChE
[7] = Acetone/Water/Hydrochloric acid (conc.)
[8] = Dioxane/Water/Hydrochloric acid (conc.)
[9] = Methanol/Water/Hydrochloric acid (conc.)

SMILES	Ki (purified human BChE; [4]) [µM]	IS (recombinant human AChE)	Ki (recombinant human AChE; [6]) [µM]	FRAP ([1]; 10 µM compound) [µM]	FRAP ([1]; 100 µM compound) [µM]	RM0 [2, 7]	b [2, 7]	RM0 [2, 8]	b [2, 8]	RM0 [2, 9]	b [2, 9]	RF, Methanol/Water/Hydrochloric acid (conc.), mobile phase I ([2]; RP-18 silica)	RF, Dioxane/Water/Hydrochloric acid (conc.), mobile phase II ([2]; RP-18 silica)	RF, Methanol/Water/Hydrochloric acid (conc.), mobile phase II ([2]; RP-18 silica)	RF, Acetone/Water/Hydrochloric acid (conc.), mobile phase III ([2]; RP-18 silica)	RF, Dioxane/Water/Hydrochloric acid (conc.), mobile phase III ([2]; RP-18 silica)	RF, Methanol/Water/Hydrochloric acid (conc.), mobile phase III ([2]; RP-18 silica)	RF, Dioxane/Water/Hydrochloric acid (conc.), mobile phase IV ([2]; RP-18 silica)	RF, Acetone/Water/Hydrochloric acid (conc.), mobile phase IV ([2]; RP-18 silica)	RF, Methanol/Water/Hydrochloric acid (conc.), mobile phase IV ([2]; RP-18 silica)	also measured
Clc1ccc2c(Nc3ccc(NCC45CC6CC(CC(C6)C4)C5)cc3)ccnc2c1 [Compound 17]	2.5 ± 0.5	0.8	3.3 ± 0.4	53 ± 4	512 ± 117	2.018	3.21	0.9452	1.898	2.643	3.504	0.73	0.75	0.69	0.59	0.71	0.54	0.71	0.54	0.53	decrease in BChE inhibition vs compound 5 (purified human BChE): up to 275 times; Ki (purified human BChE; [3]): 2.5 µM; Ki (recombinant human AChE; [5]): 3.3 µM; antioxidant power lower than that of Trolox ([1]; on average): ~10 times; RF, Acetone/Water/Hydrochloric acid (conc.), mobile phase IX ([2]; RP-18 silica): 0.11; RF, Methanol/Water/Hydrochloric acid (conc.), mobile phase IX ([2]; RP-18 silica): 0.09; RF, Dioxane/Water/Hydrochloric acid (conc.), mobile phase V ([2]; RP-18 silica): 0.49; RF, Acetone/Water/Hydrochloric acid (conc.), mobile phase V ([2]; RP-18 silica): 0.44; RF, Methanol/Water/Hydrochloric acid (conc.), mobile phase V ([2]; RP-18 silica): 0.45; RF, Dioxane/Water/Hydrochloric acid (conc.), mobile phase VI ([2]; RP-18 silica): 0.35; RF, Acetone/Water/Hydrochloric acid (conc.), mobile phase VI ([2]; RP-18 silica): 0.39; RF, Methanol/Water/Hydrochloric acid (conc.), mobile phase VI ([2]; RP-18 silica): 0.35; RF, Acetone/Water/Hydrochloric acid (conc.), mobile phase VII ([2]; RP-18 silica): 0.33; RF, Methanol/Water/Hydrochloric acid (conc.), mobile phase VII ([2]; RP-18 silica): 0.24; RF, Acetone/Water/Hydrochloric acid (conc.), mobile phase VIII ([2]; RP-18 silica): 0.25; RF, Methanol/Water/Hydrochloric acid (conc.), mobile phase VIII ([2]; RP-18 silica): 0.15
Clc1ccc2c(NCCCCN(CCC34CC5CC(CC(C5)C3)C4)CCC34CC5CC(CC(C5)C3)C4)ccnc2c1 [Compound 10]	1 ± 0.1	0.4	2.4 ± 0.2	13 ± 4	90 ± 6	3.647	4.824	1.984	2.852	5.456	5.91	0.44	0.65	0.31	0.33	0.59	0.1	0.47	0.28	0.1	RF, Acetone/Water/Hydrochloric acid (conc.), mobile phase I ([2]; RP-18 silica, I = 80%AC/15%H2O/5%HCl): 0.59; RF, Dioxane/Water/Hydrochloric acid (conc.), mobile phase I ([2]; RP-18 silica, I = 90%Dioxane/5%H2O/5%HCl): 0.75; RF, Acetone/Water/Hydrochloric acid (conc.), mobile phase II ([2]; RP-18 silica, II = 75%AC/20%H2O/5%HCl): 0.52; RF, Acetone/Water/Hydrochloric acid (conc.), mobile phase IX ([2]; RP-18 silica): 0; RF, Methanol/Water/Hydrochloric acid (conc.), mobile phase IX ([2]; RP-18 silica): 0; RF, Dioxane/Water/Hydrochloric acid (conc.), mobile phase V ([2]; RP-18 silica): 0.14; RF, Acetone/Water/Hydrochloric acid (conc.), mobile phase V ([2]; RP-18 silica): 0.13; RF, Methanol/Water/Hydrochloric acid (conc.), mobile phase V ([2]; RP-18 silica): 0.05; RF, Dioxane/Water/Hydrochloric acid (conc.), mobile phase VI ([2]; RP-18 silica): 0; RF, Acetone/Water/Hydrochloric acid (conc.), mobile phase VI ([2]; RP-18 silica): 0.09; RF, Methanol/Water/Hydrochloric acid (conc.), mobile phase VI ([2]; RP-18 silica): 0.01; RF, Acetone/Water/Hydrochloric acid (conc.), mobile phase VII ([2]; RP-18 silica): 0; RF, Methanol/Water/Hydrochloric acid (conc.), mobile phase VII ([2]; RP-18 silica): 0; RF, Acetone/Water/Hydrochloric acid (conc.), mobile phase VIII ([2]; RP-18 silica): 0; RF, Methanol/Water/Hydrochloric acid (conc.), mobile phase VIII ([2]; RP-18 silica): 0
Clc1ccc2c(NCCCCNCC34CC5CC(CC(C5)C3)C4)ccnc2c1 [Compound 3]	0.92 ± 0.04	0.9	1	0	38 ± 6	1.838	3.04	0.7921	1.783	2.348	3.092	0.71	0.78	0.65	0.63	0.74	0.51	0.74	0.58	0.53	Ki (purified human BChE; [3]): 0.92 µM; Ki (recombinant human AChE; [5]): 1 µM; RF, Acetone/Water/Hydrochloric acid (conc.), mobile phase IX ([2]; RP-18 silica): 0.15; RF, Methanol/Water/Hydrochloric acid (conc.), mobile phase IX ([2]; RP-18 silica): 0.11; RF, Dioxane/Water/Hydrochloric acid (conc.), mobile phase V ([2]; RP-18 silica): 0.55; RF, Acetone/Water/Hydrochloric acid (conc.), mobile phase V ([2]; RP-18 silica): 0.51; RF, Methanol/Water/Hydrochloric acid (conc.), mobile phase V ([2]; RP-18 silica): 0.44; RF, Dioxane/Water/Hydrochloric acid (conc.), mobile phase VI ([2]; RP-18 silica): 0.41; RF, Acetone/Water/Hydrochloric acid (conc.), mobile phase VI ([2]; RP-18 silica): 0.41; RF, Methanol/Water/Hydrochloric acid (conc.), mobile phase VI ([2]; RP-18 silica): 0.37; RF, Acetone/Water/Hydrochloric acid (conc.), mobile phase VII ([2]; RP-18 silica): 0.35; RF, Methanol/Water/Hydrochloric acid (conc.), mobile phase VII ([2]; RP-18 silica): 0.25; RF, Acetone/Water/Hydrochloric acid (conc.), mobile phase VIII ([2]; RP-18 silica): 0.3; RF, Methanol/Water/Hydrochloric acid (conc.), mobile phase VIII ([2]; RP-18 silica): 0.18
